Assay results taken from patent publication US20250051275A1, “PYRROLE DERIVATIVE OR PHARMACEUTICALLY OR SITOLOGICALLY ACCEPTABLE SALTS THEREOF, AND COMPOSITION FOR PREVENTION, AMELIORATION OR TREATMENT OF GASTROINTESTINAL DISORDERS COMPRISING SAME AS ACTIVE INGREDIENT” (HANA PHARM CO., LTD., priority 2021, published 2025).
Like-named read-outs stand apart in the source and are kept apart here.

Experiments:
[1] = tested on: Human gastric cancer cells (MKN-45 Cell); assay: Anticancer efficacy in xenograft mouse model; format: in vivo, nude mice; conditions: 10 mg/kg oral once/day, Day 12, MKN-45 xenograft
Description: This study was conducted to evaluate the anticancer efficacy of the compound of Example 15 of the present invention in a xenograft tumor model. Human gastric cancer cells (MKN-45 Cell) were purchased from the Korea Cell Line Bank and cultured in a 5% CO2 incubator at 37° C. by using an RPMI 1640 medium containing 1% penicillin-streptomycin and 10% fetal bovine serum. The cultured cells were separated using 0.25% Trypsin-0.02% EDTA every 3 to 4 days and then subcultured. Cells. Four-week-old female nude mice were purchased, and after a one-week acclimatization period in a laboratory environment, the nude mice that reached 5 weeks of age were used in the experiment. MKN-45 cells were made into a single cell suspension by using Matrigel and DPBS, and implanted subcutaneously into nude mice at a concentration of 1×10^7 cells per mouse. One week after MKN-45 cell transplantation, experimental animals with tumors with a specific size were selected and divided into 3 groups with 10 animals per group. The compound of Example 7 was administered orally at administration concentrations of 10 mg/kg and 30 mg/kg, and the experiment was conducted for 12 days.
The size of the tumor was calculated using the formula ‘short axis×short axis×long axis/2,’ and the results of the changes in tumor size change are illustrated in FIG. 2.

[2] = Storage stability (related substance identification test); format: physicochemical; conditions: for storage stability: stored at −2 to 8° C., in % (unit assumed)
Excerpt: An attempt was made to evaluate the storage stability over time of the compound of Example 7 of the present invention and the compound of Comparative Example 1 (which is the deuterium-unsubstituted form of the compound of Example 7) depending on the presence of deuterium substitution.

[3] = tested on: pH of gastric juice; assay: Pharmacodynamic profile (pH of gastric juice) in beagles after histamine; format: in vivo, beagle dogs; conditions: beagle
Description: A total of 18 male beagle dogs (Marshall Beagle, Beijing) with an average weight of 9 to 11 kg were obtained, acclimatized, and distributed into a total of 6 groups, 3 dogs per test group. During the entire experiment, all beagle dogs were supplied with standardized solid food and water. The breeding room was kept under controlled and monitored conditions, while maintaining a temperature of 18° C. to 26° C., a humidity of 40% to 70%, and a light-dark cycle of 12 hours-12 hours.
The test group consisted of beagle dogs that were orally administered the vehicle as the vehicle group, beagle dogs that were orally administered control drug 1 (vonoprazan) as the comparison group, and administration group was beagle dogs orally administered with Example 7.
To measure the neutralizing power of gastric acid for drug efficacy evaluation, each dose of the compound was administered to each group. Then, histamine dihydrochloride at 0.03 mg/kg was administered subcutaneously 1, 3, 6, 24, and 48 hours after compound administration. The pH of the gastric juice was measured 0, 2.5, 4.5, 7.5, 25.5, and 49.5 hours after compound administration.

[4] = molecular target: proton pump (H+/K+-ATPase) (Sus scrofa (Pig), UniProt P19156); assay: Inhibitory activity on proton pump (H+/K+-ATPase) activity; format: biochemical; conditions: porcine gastric mucosal microsomes, 5 mM KCl, pH 6.4
Description: The compounds indicated in the above examples were tested for their inhibitory activity on proton pump (H+/K+-ATPase) activity as follows by applying the method disclosed in the literature. According to the methods of Nobuyuki Takahashi and Yukinori Take [J Pharmacol Exp Ther. 2018 February; 364(2):275-286], the gastric mucosal microsome fraction was isolated from the porcine stomach. The stomach isolated from the pig was washed first with tap water, only the fundus was cut, and then washed (a second time) with cold PBS. The gastric mucosa was separated by scraping, homogenized with 250 mM sucrose solution, and centrifuged at 20,000 g at 4° C. for 30 minutes. Only the supernatant was centrifuged at 115,000 g at 4° C. for 30 minutes, and the precipitate was suspended in 250 mM sucrose solution, added to cover with 7% Ficoll solution, and centrifuged at 135,000 g at 4° C. for 60 minutes. The microsome fraction formed at the interface was recovered and suspended in 250 mM sucrose solution, and centrifuged at 135,000 g, 4° C. for 60 minutes, and the precipitate was dissolved in 0.9% NaCl. The isolated gastric mucosal microsome fraction was quantified by using the Bicinchoninic Acid (BCA) kit (Thermo).
60 μl of enzyme reaction solution (a test compound at a given concentration, […] of gastric mucosal microsomes, 3 mM of MgSO4, 5 mM of KCl, 40 mM of Tris-HCl pH 6.4, and 0.5 mM of adenosine triphosphate) was added to each well of a 96-well plate and reacted at 37° C. for 60 minutes, and 30 μl of 10% SIDS was added to stop the enzyme reaction. 200 μl of detection solution (in which 10% L-ascorbic acid with pH 5.0 was mixed with 35 mM of ammonium molybdate tetrahydrate/15 mM of zinc acetate with pH 5.0 at the ratio of 4:1) was added and reacted at 37° C. for 30 minutes, and the absorbance value was measured at 750 nm by using a microplate reader (MULTISKAN GO, Thermo). The inhibition rate of proton pump activity was expressed as I050, which is 50% inhibition of enzyme activity, by using GraphPad Prism 5. In Table 1 below, an I050 value of 100 nM or less is indicated by +++, an I050 value of 101 to 200 nM is indicated by ++, and an I050 value of above 200 nM is indicated by +.

Sequence of proton pump (H+/K+-ATPase) (P19156 2-1034): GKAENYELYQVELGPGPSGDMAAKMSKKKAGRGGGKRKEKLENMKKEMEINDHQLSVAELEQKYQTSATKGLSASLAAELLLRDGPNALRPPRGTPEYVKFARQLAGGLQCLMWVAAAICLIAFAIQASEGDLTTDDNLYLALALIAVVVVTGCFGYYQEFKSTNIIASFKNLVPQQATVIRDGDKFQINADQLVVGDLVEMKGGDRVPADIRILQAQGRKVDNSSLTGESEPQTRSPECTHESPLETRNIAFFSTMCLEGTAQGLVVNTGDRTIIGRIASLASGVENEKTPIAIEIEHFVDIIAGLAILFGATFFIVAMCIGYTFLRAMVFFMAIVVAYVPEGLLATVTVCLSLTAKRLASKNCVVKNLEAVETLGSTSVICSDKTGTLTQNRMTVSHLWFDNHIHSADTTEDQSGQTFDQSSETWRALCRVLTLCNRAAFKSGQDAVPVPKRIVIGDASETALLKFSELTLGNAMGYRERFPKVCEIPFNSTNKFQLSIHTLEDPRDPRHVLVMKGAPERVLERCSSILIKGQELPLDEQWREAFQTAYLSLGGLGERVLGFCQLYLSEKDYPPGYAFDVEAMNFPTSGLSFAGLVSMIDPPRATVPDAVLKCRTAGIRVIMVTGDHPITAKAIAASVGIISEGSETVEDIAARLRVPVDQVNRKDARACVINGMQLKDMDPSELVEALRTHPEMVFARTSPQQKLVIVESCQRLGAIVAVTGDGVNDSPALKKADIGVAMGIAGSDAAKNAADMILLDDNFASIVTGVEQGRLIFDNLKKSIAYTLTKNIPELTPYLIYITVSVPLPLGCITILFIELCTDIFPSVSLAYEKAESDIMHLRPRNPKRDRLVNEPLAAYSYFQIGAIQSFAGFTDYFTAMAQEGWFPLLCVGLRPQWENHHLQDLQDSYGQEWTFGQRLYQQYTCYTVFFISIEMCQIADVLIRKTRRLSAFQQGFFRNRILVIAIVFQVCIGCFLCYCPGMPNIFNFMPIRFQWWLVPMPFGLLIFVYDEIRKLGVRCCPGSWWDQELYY
Sequence of proton pump (H+/K+-ATPase) (P18434 whole entry partner): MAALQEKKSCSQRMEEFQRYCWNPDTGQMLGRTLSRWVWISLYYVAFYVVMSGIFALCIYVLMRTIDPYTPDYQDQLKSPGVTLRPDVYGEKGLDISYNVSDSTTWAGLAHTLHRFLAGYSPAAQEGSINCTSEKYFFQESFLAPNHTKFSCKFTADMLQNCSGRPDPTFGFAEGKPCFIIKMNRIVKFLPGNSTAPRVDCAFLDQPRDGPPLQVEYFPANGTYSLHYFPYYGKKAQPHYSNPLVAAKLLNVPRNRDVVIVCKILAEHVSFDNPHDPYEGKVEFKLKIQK

SMILES: [2H]C([2H])([2H])NCc1cc(-c2ccccc2F)n(S(=O)(=O)c2ccc(F)cc2)c1 [Example 7, N-((5-(2-fluorophenyl)-1-((4-fluorophenyl)sulfonyl)-1H-pyrrol-3-yl)methyl)methan-d3-amine]
- tumor size reduced as compared to the Control group (vehicle) [1]: 42%
- storage stability, Results ([2]; stored at −2 to 8° C. for 3 months): Stable
- storage stability ([2]; 1st week): 98.33
- storage stability ([2]; 2nd week): 98.11
- storage stability ([2]; 3 months): 98.9
- storage stability ([2]; 3rd week): 98.11
- storage stability ([2]; 4th week): 98.20
- storage stability ([2]; Initial): 98.38
- Average pH of gastric juice ([3]; oral 0.1 mg/kg, 0 h): 6.8
- Average pH of gastric juice ([3]; oral 0.1 mg/kg, 2.5 h): 3.3
- Average pH of gastric juice ([3]; oral 0.1 mg/kg, 4.5 h): 6.5
- Average pH of gastric juice ([3]; oral 0.1 mg/kg, 7.5 h): 6.0
- Average pH of gastric juice ([3]; oral 0.1 mg/kg, 25.5 h): 2.7
- Average pH of gastric juice ([3]; oral 0.1 mg/kg, 49.5 h): 2.4
- Average pH of gastric juice ([3]; oral 0.3 mg/kg, 0 h): 7.2
- Average pH of gastric juice ([3]; oral 0.3 mg/kg, 2.5 h): 6.7
- Average pH of gastric juice ([3]; oral 0.3 mg/kg, 4.5 h): 7.0
- Average pH of gastric juice ([3]; oral 0.3 mg/kg, 7.5 h): 6.5
- Average pH of gastric juice ([3]; oral 0.3 mg/kg, 25.5 h): 2.3
- Average pH of gastric juice ([3]; oral 0.3 mg/kg, 49.5 h): 2.8
- Average pH of gastric juice ([3]; oral 1 mg/kg, 0 h): 5.7
- Average pH of gastric juice ([3]; oral 1 mg/kg, 2.5 h): 7.2
- Average pH of gastric juice ([3]; oral 1 mg/kg, 4.5 h): 6.7
- Average pH of gastric juice ([3]; oral 1 mg/kg, 7.5 h): 6.2
- Average pH of gastric juice ([3]; oral 1 mg/kg, 25.5 h): 3.0
- Average pH of gastric juice ([3]; oral 1 mg/kg, 49.5 h): 2.3
- Average pH of gastric juice ([3]; oral 3 mg/kg, 0 h): 6.0
- Average pH of gastric juice ([3]; oral 3 mg/kg, 2.5 h): 7.3
- Average pH of gastric juice ([3]; oral 3 mg/kg, 4.5 h): 7.0
- Average pH of gastric juice ([3]; oral 3 mg/kg, 7.5 h): 6.3
- Average pH of gastric juice ([3]; oral 3 mg/kg, 25.5 h): 6.2
- Average pH of gastric juice ([3]; oral 3 mg/kg, 49.5 h): 3.0
- IC50 ([4]; read-out: Proton pump inhibitory activity (IC50)): 25 nM
- IC50 ([4]; read-out: Proton pump inhibitory activity (IC50, nM), class symbol): ≤ 100 nM
